Columns and labels:
[1] = biological target: HDAC6 (Homo sapiens (Human), UniProt Q9UBN7); assay: HDAC6 inhibitory activity (fluorogenic HDAC substrate); type: biochemical; conditions: culture 30° C. for 1 hour
Procedure: (§1) 2×HDAC enzymes were dispensed in each well of the reaction plate except for the control well without HDAC enzyme, and buffer was dispensed in the control well without the enzyme. Using acoustic technology (Echo550, nanoliter range), compounds dissolved in 100% DMSO were added to the enzyme mixture, spun down, and pre-cultured at room temperature for 10 minutes. All reaction wells were placed with a 2× substrate mixture (fluorogenic HDAC substrate) to initiate the reaction and then spun down. Culture was performed at 30° C. for 1 hour for HDAC6 and 2 hours for HDAC8.
(§2) Afterwards, a developer was added along with trichostatin A to halt the reaction and develop fluorescence. Dynamics measurements were performed with Envision (Ex/Em=360/460 nm) for 20 minutes with 5-minute intervals, and values from endpoint reading were taken for analysis after the phenomenon reached a plateau.

[2] = biological target: HDAC8 (Homo sapiens (Human), UniProt Q9BY41); assay: HDAC8 inhibitory activity (fluorogenic HDAC substrate); type: biochemical; conditions: culture 30° C. for 2 hours
Chain of HDAC8 (Q9BY41 whole entry, species assumed): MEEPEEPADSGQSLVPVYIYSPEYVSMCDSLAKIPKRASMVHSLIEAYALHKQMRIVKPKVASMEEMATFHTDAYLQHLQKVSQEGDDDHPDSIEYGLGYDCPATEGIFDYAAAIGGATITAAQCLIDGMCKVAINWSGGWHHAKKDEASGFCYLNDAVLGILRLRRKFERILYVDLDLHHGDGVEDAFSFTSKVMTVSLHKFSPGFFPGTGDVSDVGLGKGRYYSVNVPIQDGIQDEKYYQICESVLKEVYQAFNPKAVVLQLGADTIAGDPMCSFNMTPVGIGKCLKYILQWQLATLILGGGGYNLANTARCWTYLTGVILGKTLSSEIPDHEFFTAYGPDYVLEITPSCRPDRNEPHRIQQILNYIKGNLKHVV
Procedure: as §1, §2

[3] = MS (in mouse); type: in vitro ADME; design: unit not given here
[4] = MS (in human); type: in vitro ADME; design: unit not given here

Chain of HDAC6 (Q9UBN7 whole entry): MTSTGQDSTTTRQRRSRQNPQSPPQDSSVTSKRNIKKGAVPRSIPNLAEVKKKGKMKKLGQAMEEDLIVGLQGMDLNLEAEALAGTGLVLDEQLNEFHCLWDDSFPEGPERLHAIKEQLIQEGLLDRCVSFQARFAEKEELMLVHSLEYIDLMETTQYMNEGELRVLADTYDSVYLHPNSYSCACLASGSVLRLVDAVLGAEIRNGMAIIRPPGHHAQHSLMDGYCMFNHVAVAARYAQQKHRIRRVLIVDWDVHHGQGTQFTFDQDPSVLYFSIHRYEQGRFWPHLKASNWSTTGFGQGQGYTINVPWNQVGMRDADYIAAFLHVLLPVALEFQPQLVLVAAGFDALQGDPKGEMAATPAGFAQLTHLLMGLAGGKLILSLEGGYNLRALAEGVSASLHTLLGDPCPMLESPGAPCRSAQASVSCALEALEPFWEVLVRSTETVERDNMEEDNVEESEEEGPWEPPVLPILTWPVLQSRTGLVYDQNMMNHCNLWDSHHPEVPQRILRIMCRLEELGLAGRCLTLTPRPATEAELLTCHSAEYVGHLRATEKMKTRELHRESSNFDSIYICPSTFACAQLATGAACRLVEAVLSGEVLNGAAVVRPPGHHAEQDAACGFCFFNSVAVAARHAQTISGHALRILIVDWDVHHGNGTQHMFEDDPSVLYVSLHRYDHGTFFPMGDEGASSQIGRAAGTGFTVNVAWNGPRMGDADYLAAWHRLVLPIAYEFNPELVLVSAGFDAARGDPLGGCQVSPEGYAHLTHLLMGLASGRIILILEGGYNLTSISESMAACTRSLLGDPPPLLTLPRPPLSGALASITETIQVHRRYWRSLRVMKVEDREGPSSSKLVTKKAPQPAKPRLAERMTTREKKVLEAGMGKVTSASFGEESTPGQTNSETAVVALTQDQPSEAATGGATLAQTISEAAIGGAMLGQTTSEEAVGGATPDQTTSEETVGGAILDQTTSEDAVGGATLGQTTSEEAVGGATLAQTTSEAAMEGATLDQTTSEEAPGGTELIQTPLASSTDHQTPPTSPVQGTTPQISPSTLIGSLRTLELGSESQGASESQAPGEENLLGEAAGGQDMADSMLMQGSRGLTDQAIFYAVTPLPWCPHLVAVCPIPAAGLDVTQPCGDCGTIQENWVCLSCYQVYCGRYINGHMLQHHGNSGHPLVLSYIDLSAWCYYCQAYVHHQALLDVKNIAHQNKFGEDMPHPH

IC50 [1] | IC50 [2] | MS (in mouse) [3] | MS (in human) [4] | Compound
0.0026 µM | 1.32 µM | 79.3 | 97.6 | O=C(NO)c1ccc2cn(Cc3ccccc3)nc2c1 [Compound 50, 2-Benzyl-2H-indazole-6-carboxylic acid hydroxyamide]
0.0054 µM | 0.765 µM | 98.6 | 76.7 | COc1ccc(Cn2cc3ccc(C(=O)NO)cc3n2)cc1 [Compound 51, 2-(4-Methoxybenzyl)-2H-indazole-6-carboxylic acid hydroxyamide]
0.0074 µM | 0.699 µM | – | – | Cc1ccc(Cn2cc3ccc(C(=O)NO)cc3n2)cc1 [Compound 52, 2-(4-Methylbenzyl)-2H-indazole-6-carboxylic acid hydroxyamide]
0.0059 µM | 0.932 µM | 71.3 | 85.9 | O=C(NO)c1ccc2cn(Cc3ccc(F)cc3)nc2c1 [Compound 53, 2-(4-Fluorobenzyl)-2H-indazole-6-carboxylic acid hydroxyamide]
0.0027 µM | 0.776 µM | 40.8 | 49.3 | O=C(NO)c1ccc2cn(Cc3ccc(Cl)cc3)nc2c1 [Compound 54, 2-(4-Chlorobenzyl)-2H-indazole-6-carboxylic acid hydroxyamide]
0.0034 µM | 0.593 µM | – | – | O=C(NO)c1ccc2cn(Cc3ccc(Br)cc3)nc2c1 [Compound 55, 2-(4-Bromobenzyl)-2H-indazole-6-carboxylic acid hydroxyamide]
0.0044 µM | 1.02 µM | – | – | O=C(NO)c1ccc2cn(Cc3cccc(OC(F)(F)F)c3)nc2c1 [Compound 56, 2-(3-Trifluoromethoxybenzyl)-2H-indazole-6-carboxylic acid hydroxyamide]
0.0055 µM | 1.07 µM | – | – | O=C(NO)c1ccc2cn(Cc3ccc(OC(F)(F)F)cc3)nc2c1 [Compound 57, 2-(4-Trifluoromethoxybenzyl)-2H-indazole-6-carboxylic acid hydroxyamide]
0.0042 µM | 0.87 µM | – | – | O=C(NO)c1ccc2cn(Cc3ccc4ccccc4c3)nc2c1 [Compound 58, 2-Naphthalen-2-ylmethyl-2H-indazole-6-carboxylic acid hydroxyamide]
0.004 µM | 1.17 µM | – | – | O=C(NO)c1ccc2cn(CCc3ccccc3)nc2c1 [Compound 59, 2-Phenethyl-2H-indazole-6-carboxylic acid hydroxyamide]
0.0047 µM | 1.1 µM | – | – | COc1ccc(CCn2cc3ccc(C(=O)NO)cc3n2)cc1 [Compound 60, 2-(2-4-Methoxyphenylethyl)-2H-indazole-6-carboxylic acid hydroxyamide]
0.0039 µM | 0.877 µM | – | – | O=C(NO)c1ccc2cn(Cc3cc(F)cc(F)c3)nc2c1 [Compound 61, 2-(3,5-Difluorobenzyl)-2H-indazole-6-carboxylic acid hydroxyamide]
0.0041 µM | 0.5 µM | – | – | O=C(NO)c1ccc2cn(Cc3ccc(OC(F)F)cc3)nc2c1 [Compound 62, 2-(4-Difluoromethoxybenzyl)-2H-indazole-6-carboxylic acid hydroxyamide]
0.0036 µM | 1.29 µM | – | – | O=C(NO)c1ccc2cn(Cc3ccc(-c4ccccc4)cc3)nc2c1 [Compound 63, 2-Biphenyl-4-ylmethyl-2H-indazole-6-carboxylic acid hydroxyamide]
0.0293 µM | 2.86 µM | – | – | CC(C)c1ccc(Cn2cc3ccc(C(=O)NO)cc3n2)cc1 [Compound 64, 2-(4-Isopropylbenzyl)-2H-indazole-6-carboxylic acid hydroxyamide]
0.0067 µM | 1.52 µM | – | – | O=C(NO)c1ccc2cn(CCc3ccc(F)cc3)nc2c1 [Compound 65, 2-(2-4-Fluorophenylethyl)-2H-indazole-6-carboxylic acid hydroxyamide]
0.0018 µM | 1.13 µM | – | – | O=C(NO)c1ccc2cn(Cc3cccc(F)c3)nc2c1 [Compound 66, 2-(3-Fluorobenzyl)-2H-indazole-6-carboxylic acid hydroxyamide]
0.0013 µM | 8.39 µM | – | – | O=C(NO)c1ccc2cn(Cc3cccc(Cl)c3)nc2c1 [Compound 67, 2-(3-Chlorobenzyl)-2H-indazole-6-carboxylic acid hydroxyamide]
0.0033 µM | 0.738 µM | – | – | O=C(NO)c1ccc2cn(Cc3cccc(C(F)(F)F)c3)nc2c1 [Compound 68, 2-(3-Trifluoromethylbenzyl)-2H-indazole-6-carboxylic acid hydroxyamide]
0.003 µM | 0.598 µM | – | – | O=C(NO)c1ccc2cn(Cc3ccc(C(F)(F)F)cc3)nc2c1 [Compound 69, 2-(4-Trifluoromethylbenzyl)-2H-indazole-6-carboxylic acid hydroxyamide]
0.0018 µM | 0.967 µM | – | – | COc1cccc(Cn2cc3ccc(C(=O)NO)cc3n2)c1 [Compound 70, 2-(3-Methoxybenzyl)-2H-indazole-6-carboxylic acid hydroxyamide]
0.0135 µM | 2.12 µM | – | – | O=C(NO)c1ccc2cn(Cc3cccc(OCc4ccccc4)c3)nc2c1 [Compound 71, 2-(3-Benzyloxybenzyl)-2H-indazole-6-carboxylic acid hydroxyamide]
0.0038 µM | 0.814 µM | – | – | COc1cc(Cn2cc3ccc(C(=O)NO)cc3n2)cc(OC)c1 [Compound 72, 2-(3,5-Dimethoxybenzyl)-2H-indazole-6-carboxylic acid hydroxyamide]
0.0228 µM | 2 µM | – | – | O=C(NO)c1ccc2cn(Cc3cccc(Oc4ccccc4)c3)nc2c1 [Compound 73, 2-(3-Phenoxybenzyl)-2H-indazole-6-carboxylic acid hydroxyamide]
0.0743 µM | 3.85 µM | – | – | O=C(NO)c1cc2nn(Cc3ccccc3)cc2cc1F [Compound 88, 2-Benzyl-5-fluoro-2H-indazole-6-carboxylic acid hydroxyamide]
0.0303 µM | 2.37 µM | – | – | O=C(NO)c1cc2nn(Cc3cccc(Cl)c3)cc2cc1F [Compound 89, 2-(3-chlorobenzyl)-5-fluoro-2H-indazole-6-carboxylic acid hydroxyamide]
0.0754 µM | 2.85 µM | – | – | COc1cccc(Cn2cc3cc(F)c(C(=O)NO)cc3n2)c1 [Compound 90, 2-(3-Methoxybenzyl)-5-fluoro-2H-indazole-6-carboxylic acid hydroxyamide]

From patent US20250197369A1, “NOVEL HETEROCYCLIC INHIBITOR FOR HISTONE DEACETYLASE, AND PHARMACEUTICAL COMPOSITION COMPRISING SAME” (SOOKMYUNG WOMEN'S UNIVERSITY INDUSTRY-ACADEMIC COOPERATION …, priority 2022, published 2025)
